Laboratory results: the NIST ThermoML archive (doi:10.1021/je060271a)
± gives the expanded uncertainty stated by the source.

Settings: 323.15 K, Liquid, Vibrating tube method

CCCCC(=O)OCC(COC(=O)CCCC)(COC(=O)CCCC)COC(=O)CCCC [pentaerythritol tetrapentanoate]
mass density (10795 kPa): 1002.1 ± 1.2 kg/m3
mass density (10820 kPa): 1002.2 ± 1.2 kg/m3
mass density (10840 kPa): 1002.2 ± 1.2 kg/m3
mass density (10860 kPa): 1002.2 ± 1.2 kg/m3
mass density (10885 kPa): 1002.2 ± 1.2 kg/m3
mass density (10905 kPa): 1002.2 ± 1.2 kg/m3
mass density (10926 kPa): 1002.2 ± 1.2 kg/m3
mass density (10951 kPa): 1002.2 ± 1.2 kg/m3
mass density (10971 kPa): 1002.3 ± 1.2 kg/m3
mass density (10992 kPa): 1002.2 ± 1.2 kg/m3
mass density (11018 kPa): 1002.3 ± 1.2 kg/m3
mass density (11039 kPa): 1002.2 ± 1.2 kg/m3
mass density (11060 kPa): 1002.4 ± 1.2 kg/m3
mass density (11085 kPa): 1002.4 ± 1.2 kg/m3
mass density (11106 kPa): 1002.3 ± 1.2 kg/m3
mass density (11128 kPa): 1002.4 ± 1.2 kg/m3
mass density (11153 kPa): 1002.4 ± 1.2 kg/m3
mass density (11175 kPa): 1002.3 ± 1.2 kg/m3
mass density (11197 kPa): 1002.4 ± 1.2 kg/m3
mass density (11223 kPa): 1002.5 ± 1.2 kg/m3
mass density (11245 kPa): 1002.5 ± 1.2 kg/m3
mass density (11267 kPa): 1002.4 ± 1.2 kg/m3
mass density (11289 kPa): 1002.5 ± 1.2 kg/m3
mass density (11316 kPa): 1002.5 ± 1.2 kg/m3
mass density (11339 kPa): 1002.5 ± 1.2 kg/m3
mass density (11366 kPa): 1002.7 ± 1.2 kg/m3
mass density (11388 kPa): 1002.6 ± 1.2 kg/m3
mass density (11411 kPa): 1002.6 ± 1.2 kg/m3
mass density (11434 kPa): 1002.6 ± 1.2 kg/m3
mass density (11461 kPa): 1002.6 ± 1.2 kg/m3
mass density (11484 kPa): 1002.6 ± 1.2 kg/m3
mass density (11534 kPa): 1002.6 ± 1.2 kg/m3
mass density (11558 kPa): 1002.6 ± 1.2 kg/m3
mass density (11581 kPa): 1002.6 ± 1.2 kg/m3
mass density (11610 kPa): 1002.5 ± 1.2 kg/m3
mass density (11633 kPa): 1002.7 ± 1.2 kg/m3
mass density (11657 kPa): 1002.6 ± 1.2 kg/m3
mass density (11681 kPa): 1002.7 ± 1.2 kg/m3
mass density (11710 kPa): 1002.7 ± 1.2 kg/m3
mass density (11735 kPa): 1002.8 ± 1.2 kg/m3
mass density (11759 kPa): 1002.7 ± 1.2 kg/m3
mass density (11784 kPa): 1002.8 ± 1.2 kg/m3
mass density (11813 kPa): 1002.8 ± 1.2 kg/m3
mass density (11838 kPa): 1002.8 ± 1.2 kg/m3
mass density (11862 kPa): 1002.9 ± 1.2 kg/m3
mass density (11892 kPa): 1002.9 ± 1.2 kg/m3
mass density (11917 kPa): 1003 ± 1.2 kg/m3
mass density (11942 kPa): 1002.8 ± 1.2 kg/m3
mass density (11971 kPa): 1003 ± 1.2 kg/m3
mass density (11996 kPa): 1003 ± 1.2 kg/m3
mass density (12022 kPa): 1002.9 ± 1.2 kg/m3
mass density (12053 kPa): 1003 ± 1.2 kg/m3
mass density (12074 kPa): 1003.1 ± 1.2 kg/m3
mass density (12105 kPa): 1003 ± 1.2 kg/m3
mass density (12130 kPa): 1003 ± 1.2 kg/m3
mass density (12156 kPa): 1003 ± 1.2 kg/m3
mass density (12187 kPa): 1003 ± 1.2 kg/m3
mass density (12213 kPa): 1003.1 ± 1.2 kg/m3
mass density (12244 kPa): 1003.1 ± 1.2 kg/m3
mass density (12271 kPa): 1003.1 ± 1.2 kg/m3
mass density (12297 kPa): 1003.2 ± 1.2 kg/m3
mass density (12324 kPa): 1003.2 ± 1.2 kg/m3
mass density (12355 kPa): 1003.2 ± 1.2 kg/m3
mass density (12382 kPa): 1003.4 ± 1.2 kg/m3
mass density (12415 kPa): 1003.3 ± 1.2 kg/m3
mass density (12442 kPa): 1003.1 ± 1.2 kg/m3
mass density (12469 kPa): 1003.2 ± 1.2 kg/m3
mass density (12502 kPa): 1003.3 ± 1.2 kg/m3
mass density (12529 kPa): 1003.4 ± 1.2 kg/m3
mass density (12557 kPa): 1003.4 ± 1.2 kg/m3
mass density (12585 kPa): 1003.4 ± 1.2 kg/m3
mass density (12618 kPa): 1003.2 ± 1.2 kg/m3
mass density (12646 kPa): 1003.4 ± 1.2 kg/m3
mass density (12674 kPa): 1003.4 ± 1.2 kg/m3
mass density (12736 kPa): 1003.4 ± 1.2 kg/m3
mass density (12770 kPa): 1003.5 ± 1.2 kg/m3
mass density (12800 kPa): 1003.3 ± 1.2 kg/m3
mass density (12828 kPa): 1003.6 ± 1.2 kg/m3
mass density (12858 kPa): 1003.5 ± 1.2 kg/m3
mass density (12892 kPa): 1003.5 ± 1.2 kg/m3
mass density (12922 kPa): 1003.7 ± 1.2 kg/m3
mass density (12957 kPa): 1003.7 ± 1.2 kg/m3
mass density (12986 kPa): 1003.6 ± 1.2 kg/m3
mass density (13016 kPa): 1003.7 ± 1.2 kg/m3
mass density (13052 kPa): 1003.6 ± 1.2 kg/m3
mass density (13082 kPa): 1003.6 ± 1.2 kg/m3
mass density (13112 kPa): 1003.7 ± 1.2 kg/m3
mass density (13149 kPa): 1003.7 ± 1.2 kg/m3
mass density (13179 kPa): 1003.7 ± 1.2 kg/m3
mass density (13210 kPa): 1003.7 ± 1.2 kg/m3
mass density (13242 kPa): 1003.9 ± 1.2 kg/m3
mass density (13279 kPa): 1003.8 ± 1.2 kg/m3
mass density (13310 kPa): 1003.9 ± 1.2 kg/m3
mass density (13347 kPa): 1003.9 ± 1.2 kg/m3
mass density (13378 kPa): 1003.7 ± 1.2 kg/m3
mass density (13410 kPa): 1003.9 ± 1.2 kg/m3
mass density (13443 kPa): 1004 ± 1.2 kg/m3
mass density (13482 kPa): 1003.9 ± 1.2 kg/m3
mass density (13514 kPa): 1004 ± 1.2 kg/m3
mass density (13548 kPa): 1004 ± 1.2 kg/m3
mass density (13581 kPa): 1004 ± 1.2 kg/m3
mass density (13620 kPa): 1004 ± 1.2 kg/m3
mass density (13654 kPa): 1004 ± 1.2 kg/m3
mass density (13687 kPa): 1004.2 ± 1.2 kg/m3
mass density (13727 kPa): 1004 ± 1.2 kg/m3
mass density (13760 kPa): 1004.1 ± 1.2 kg/m3
mass density (13794 kPa): 1004.2 ± 1.2 kg/m3
mass density (13829 kPa): 1004.2 ± 1.2 kg/m3
mass density (13870 kPa): 1004.3 ± 1.2 kg/m3
mass density (13945 kPa): 1004.2 ± 1.2 kg/m3
mass density (13980 kPa): 1004.2 ± 1.2 kg/m3
mass density (14049 kPa): 1004.4 ± 1.2 kg/m3
mass density (14091 kPa): 1004.3 ± 1.2 kg/m3
mass density (14126 kPa): 1004.4 ± 1.2 kg/m3
mass density (14162 kPa): 1004.3 ± 1.2 kg/m3
mass density (14284 kPa): 1004.4 ± 1.2 kg/m3
mass density (14320 kPa): 1004.4 ± 1.2 kg/m3
mass density (14358 kPa): 1004.5 ± 1.2 kg/m3
mass density (14402 kPa): 1004.5 ± 1.2 kg/m3
mass density (14440 kPa): 1004.6 ± 1.2 kg/m3
mass density (14477 kPa): 1004.6 ± 1.2 kg/m3
mass density (14515 kPa): 1004.6 ± 1.2 kg/m3
mass density (14560 kPa): 1004.7 ± 1.2 kg/m3
mass density (14600 kPa): 1004.6 ± 1.2 kg/m3
mass density (14639 kPa): 1004.7 ± 1.2 kg/m3
mass density (14678 kPa): 1004.6 ± 1.2 kg/m3
mass density (14717 kPa): 1004.7 ± 1.2 kg/m3
mass density (14764 kPa): 1004.7 ± 1.2 kg/m3
mass density (14803 kPa): 1004.7 ± 1.2 kg/m3
mass density (14843 kPa): 1004.8 ± 1.2 kg/m3
mass density (14891 kPa): 1004.9 ± 1.2 kg/m3
mass density (14931 kPa): 1004.9 ± 1.2 kg/m3
mass density (14972 kPa): 1005 ± 1.2 kg/m3
mass density (15020 kPa): 1004.9 ± 1.2 kg/m3
mass density (15062 kPa): 1004.9 ± 1.2 kg/m3
mass density (15103 kPa): 1005 ± 1.2 kg/m3
mass density (15147 kPa): 1005 ± 1.2 kg/m3
mass density (15192 kPa): 1005.1 ± 1.2 kg/m3
mass density (15243 kPa): 1005.1 ± 1.2 kg/m3
mass density (15287 kPa): 1005.1 ± 1.2 kg/m3
mass density (15332 kPa): 1005.1 ± 1.2 kg/m3
mass density (15386 kPa): 1005.2 ± 1.2 kg/m3
mass density (15429 kPa): 1005.1 ± 1.2 kg/m3
mass density (15462 kPa): 1005.2 ± 1.2 kg/m3
mass density (15497 kPa): 1005.2 ± 1.2 kg/m3
mass density (15526 kPa): 1005.2 ± 1.2 kg/m3
mass density (15556 kPa): 1005.3 ± 1.2 kg/m3
mass density (15585 kPa): 1005.3 ± 1.2 kg/m3
mass density (15621 kPa): 1005.2 ± 1.2 kg/m3
mass density (15652 kPa): 1005.4 ± 1.2 kg/m3
mass density (15685 kPa): 1005.4 ± 1.2 kg/m3
mass density (15723 kPa): 1005.4 ± 1.2 kg/m3
mass density (15754 kPa): 1005.5 ± 1.2 kg/m3
mass density (15779 kPa): 1005.4 ± 1.2 kg/m3
mass density (15803 kPa): 1005.4 ± 1.2 kg/m3
mass density (15822 kPa): 1005.5 ± 1.2 kg/m3
mass density (15842 kPa): 1005.5 ± 1.2 kg/m3
mass density (15865 kPa): 1005.6 ± 1.2 kg/m3
mass density (15885 kPa): 1005.5 ± 1.2 kg/m3
mass density (15904 kPa): 1005.6 ± 1.2 kg/m3
